Source: ChEMBL document CHEMBL1201862, “PubChem BioAssay data set” (2004)
Activity calls are given as the source filed them.

What was measured:
[1] = biological target: T1, Histone-lysine N-methyltransferase NSD2 (Homo sapiens, UniProt O96028); assay type: biochemical
T1 sequence (O96028 whole entry): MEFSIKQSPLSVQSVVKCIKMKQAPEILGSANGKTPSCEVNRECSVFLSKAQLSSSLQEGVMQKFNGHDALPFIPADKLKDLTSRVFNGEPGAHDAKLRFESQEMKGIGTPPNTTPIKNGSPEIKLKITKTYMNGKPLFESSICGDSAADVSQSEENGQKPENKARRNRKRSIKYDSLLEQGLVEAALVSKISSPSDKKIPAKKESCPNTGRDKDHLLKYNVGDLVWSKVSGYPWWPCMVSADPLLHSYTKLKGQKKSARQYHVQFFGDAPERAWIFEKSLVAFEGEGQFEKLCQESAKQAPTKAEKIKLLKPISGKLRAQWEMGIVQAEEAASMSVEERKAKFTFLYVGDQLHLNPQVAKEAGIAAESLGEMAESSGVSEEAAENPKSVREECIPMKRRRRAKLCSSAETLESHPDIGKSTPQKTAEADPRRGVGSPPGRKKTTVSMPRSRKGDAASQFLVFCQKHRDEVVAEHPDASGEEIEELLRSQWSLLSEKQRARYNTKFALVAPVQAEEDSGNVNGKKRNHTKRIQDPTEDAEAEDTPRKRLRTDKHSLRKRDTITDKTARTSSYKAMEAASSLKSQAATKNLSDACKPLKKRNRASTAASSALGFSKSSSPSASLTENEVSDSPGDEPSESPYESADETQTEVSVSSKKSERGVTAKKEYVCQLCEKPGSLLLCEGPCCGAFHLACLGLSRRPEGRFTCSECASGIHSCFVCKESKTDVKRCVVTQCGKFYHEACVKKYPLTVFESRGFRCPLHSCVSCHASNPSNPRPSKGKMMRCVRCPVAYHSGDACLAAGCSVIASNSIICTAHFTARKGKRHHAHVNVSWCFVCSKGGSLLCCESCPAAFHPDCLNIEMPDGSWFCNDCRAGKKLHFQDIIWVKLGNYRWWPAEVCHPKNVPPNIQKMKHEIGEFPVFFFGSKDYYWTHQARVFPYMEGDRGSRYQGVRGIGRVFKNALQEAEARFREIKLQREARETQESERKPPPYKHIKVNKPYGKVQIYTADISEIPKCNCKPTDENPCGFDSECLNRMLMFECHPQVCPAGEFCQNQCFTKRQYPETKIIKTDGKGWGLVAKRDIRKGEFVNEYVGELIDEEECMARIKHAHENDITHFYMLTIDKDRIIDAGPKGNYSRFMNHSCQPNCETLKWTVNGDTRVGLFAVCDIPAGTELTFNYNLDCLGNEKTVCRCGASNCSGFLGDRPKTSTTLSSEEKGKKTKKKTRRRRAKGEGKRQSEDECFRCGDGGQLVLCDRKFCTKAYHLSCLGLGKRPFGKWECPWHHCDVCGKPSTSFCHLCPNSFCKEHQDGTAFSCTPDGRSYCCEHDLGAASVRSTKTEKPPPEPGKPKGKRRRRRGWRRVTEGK

[2] = biological target: T2, Hexokinase HKDC1 (Homo sapiens, UniProt Q2TB90); experiment: SAR analysis of small molecule inhibitors of hexokinase domain containing I (HKDC1). [Related pubchem assays (depositor defined):AID493160, AID493190]; assay type: functional
T2 sequence (Q2TB90 whole entry): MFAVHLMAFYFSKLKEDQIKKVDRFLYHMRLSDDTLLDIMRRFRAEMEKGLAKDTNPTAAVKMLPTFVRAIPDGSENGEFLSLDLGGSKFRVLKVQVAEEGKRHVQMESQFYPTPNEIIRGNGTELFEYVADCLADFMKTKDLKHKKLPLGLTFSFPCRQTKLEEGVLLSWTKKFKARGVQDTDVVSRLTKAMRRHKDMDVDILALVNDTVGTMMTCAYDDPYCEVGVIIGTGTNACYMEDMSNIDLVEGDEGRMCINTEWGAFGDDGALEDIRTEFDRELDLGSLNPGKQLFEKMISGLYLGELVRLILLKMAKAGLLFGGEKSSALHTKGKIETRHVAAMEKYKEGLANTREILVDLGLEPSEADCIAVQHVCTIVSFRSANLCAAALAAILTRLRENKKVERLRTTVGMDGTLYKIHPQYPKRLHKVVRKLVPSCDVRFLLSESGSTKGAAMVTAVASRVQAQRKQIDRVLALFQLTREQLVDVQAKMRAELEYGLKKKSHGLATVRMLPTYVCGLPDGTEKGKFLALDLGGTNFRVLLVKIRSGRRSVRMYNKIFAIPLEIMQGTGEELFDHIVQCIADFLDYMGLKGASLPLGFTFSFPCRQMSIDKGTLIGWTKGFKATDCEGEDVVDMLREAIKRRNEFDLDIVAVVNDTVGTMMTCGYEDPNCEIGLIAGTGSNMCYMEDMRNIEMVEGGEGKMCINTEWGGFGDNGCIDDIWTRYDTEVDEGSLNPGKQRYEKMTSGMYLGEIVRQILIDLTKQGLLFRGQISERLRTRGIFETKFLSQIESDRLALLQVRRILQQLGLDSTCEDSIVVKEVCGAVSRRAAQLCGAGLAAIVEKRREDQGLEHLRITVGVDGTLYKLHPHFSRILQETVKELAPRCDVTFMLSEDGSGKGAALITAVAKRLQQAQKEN

[3] = Luminescence Cell-Based Dose Response HTS to Identify Inhibitors of 5'UTR Stem-Loop Driven Prion Protein mRNA Translation in H4 Neuroglioblastoma Cells. [Related pubchem assays: 1827 (Project Summary), 1813 (Primary HTS)]; assay type: functional
[4] = biological target: T3, Sphingosine 1-phosphate receptor 4 (Homo sapiens, UniProt O95977); experiment: Fluorescence dose response cell-based high throughput screening assay for antagonists of the Sphingosine 1-Phosphate Receptor 4 (S1P4). [Related pubchem assays: 1524 (Confirmation in triplicates.), 1510 (Primary screen.)]; assay type: functional
T3 sequence (O95977 whole entry): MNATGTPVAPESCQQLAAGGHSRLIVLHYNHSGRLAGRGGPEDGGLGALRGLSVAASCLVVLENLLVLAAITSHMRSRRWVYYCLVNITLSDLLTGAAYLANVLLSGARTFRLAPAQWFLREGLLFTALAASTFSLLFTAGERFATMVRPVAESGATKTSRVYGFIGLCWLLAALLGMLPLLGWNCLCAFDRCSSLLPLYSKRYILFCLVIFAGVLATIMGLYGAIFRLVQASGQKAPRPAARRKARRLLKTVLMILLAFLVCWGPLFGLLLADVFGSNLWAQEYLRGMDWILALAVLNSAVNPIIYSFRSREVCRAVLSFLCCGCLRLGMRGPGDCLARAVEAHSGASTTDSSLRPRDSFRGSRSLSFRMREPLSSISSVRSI

[5] = biological target: Sphingosine 1-phosphate receptor 1 (Homo sapiens, UniProt P21453); assay type: functional;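 further: Tango beta-arrestin reporter U2OS cells stimulated with S1P near its EC80; inhibitor potency meaning antagonism of receptor activation by the natural agonist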
[6] = enhancers of respiration in Yfh1-depleted yeast, dose response, Friedreich's ataxia, plus single-dose screen (AID 1465); assay type: functional;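 further: yeast depleted of Yfh1p frataxin homolog grown on glycerol needing respiration; WST-1 tetrazolium dye reduction as measure of cellular dehydrogenase metabolic activity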
[7] = biological target: Intestinal-type alkaline phosphatase (Mus musculus, UniProt P24822); experiment: mouse intestinal alkaline phosphatase activators, dose response, biochemical, luminescence, uHTS hits (AID 488783); assay type: functional
Chain of Intestinal-type alkaline phosphatase (P24822 whole entry): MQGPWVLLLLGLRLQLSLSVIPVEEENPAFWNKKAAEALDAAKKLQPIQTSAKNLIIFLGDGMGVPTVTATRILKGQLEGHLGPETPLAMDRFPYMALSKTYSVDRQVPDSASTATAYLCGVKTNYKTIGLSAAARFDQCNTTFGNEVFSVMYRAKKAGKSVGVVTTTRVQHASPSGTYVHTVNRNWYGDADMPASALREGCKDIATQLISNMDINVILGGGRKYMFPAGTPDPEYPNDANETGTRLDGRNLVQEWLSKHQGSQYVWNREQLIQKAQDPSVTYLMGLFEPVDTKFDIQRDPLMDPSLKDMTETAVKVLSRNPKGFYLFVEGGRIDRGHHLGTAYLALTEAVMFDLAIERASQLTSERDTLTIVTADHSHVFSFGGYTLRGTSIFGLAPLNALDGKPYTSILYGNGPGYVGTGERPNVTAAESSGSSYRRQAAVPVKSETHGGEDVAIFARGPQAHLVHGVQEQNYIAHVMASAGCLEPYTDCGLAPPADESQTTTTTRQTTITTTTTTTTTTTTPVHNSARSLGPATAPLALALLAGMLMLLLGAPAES

Chain of Sphingosine 1-phosphate receptor 1 (P21453 whole entry): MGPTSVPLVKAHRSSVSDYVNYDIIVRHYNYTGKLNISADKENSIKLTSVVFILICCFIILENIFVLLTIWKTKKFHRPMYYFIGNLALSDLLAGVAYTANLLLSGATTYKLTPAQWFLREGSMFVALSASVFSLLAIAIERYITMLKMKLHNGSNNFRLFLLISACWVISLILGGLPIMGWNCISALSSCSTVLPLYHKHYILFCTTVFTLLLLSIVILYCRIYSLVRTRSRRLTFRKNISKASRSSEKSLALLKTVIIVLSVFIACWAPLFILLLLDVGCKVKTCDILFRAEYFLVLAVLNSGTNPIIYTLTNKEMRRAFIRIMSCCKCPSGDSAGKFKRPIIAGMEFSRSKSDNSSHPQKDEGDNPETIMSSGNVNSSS

COc1ccc(S(=O)(=O)Nc2cc(SCC(=O)O)c(O)c3ccccc23)cc1
AC50 [1]: 3.56 µM (active) | IC50 [2]: 10.5 µM (active)

O=C1C(Nc2ccc(O)cc2)=C/C(=N/S(=O)(=O)c2cccs2)c2ccccc21
EC50 [3]: 0.236 µM (active) | IC50 [4]: 1.65 µM (active) | IC50 [5]: 4.23 µM (active) | EC50 [6]: > 100 µM (active)

CC1CC(=O)c2c(cc3c(-c4c(O)cc(O)c5c(O)c6c(cc45)OC(C)CC6=O)c(O)cc(O)c3c2O)O1 (configuration not stated) [CEPHALOCHROMIN]
EC50 [7]: 19.1 µM (active)
